Results taken from patent US20090082258A1, “Means and Methods for Treating Advanced Stage Neuroblastoma” (priority 2005, published 2009).
“Also recorded” adds a separate entry of the source.

How the values were obtained:
[1] = test system: nuclear histone deacetylases; assay: Accumulation of acetylated histone H4 in SH-EP cells (Western blot); assay type: cell-based; details: 6 h, 15 mM HC-Toxin [sic]
Protocol: The cells were treated for 6 hours with HC-toxin or the indicated histone deacetylase inhibitors as well as all-trans retinoic acid. Whole-cell extracts were obtained and subjected to Western-Blot analysis using an antibody, which specifically recognizes acetylated histone H4 (H4 Acetyl).
SH-EP-neuroblastoma cells were treated with […] HC-Toxin for 6 h. Subsequently, accumulation of acetylated histone H4 was investigated.

various tumour cells [2] = assay: Antitumoral effects in tumour cells, general statements and comparison with other agents; assay type: cell-based; details: higher concentration
Protocol: The differentiation inducing agent all-trans retinoic acid has to be administered in a 1000-fold higher concentration compared to HC-toxin, acts differently as compared with compounds of the general formula (I) and causes side effects known as the retinoic acid syndrome.
The compounds having a structure as shown in the general formula (I) elicit the aforementioned antitumoral effects in an extremely low dosage already, i.e. at nanomolar concentrations (5-20 nM), in various tumour cells. The mode of action of the compounds apparently encompasses inhibition of histone deacetylases. This finding is supported by the observation that treatment of MYCN single copy and amplified neuroblastoma cells with a compound of the present invention in nanomolar concentration (e.g. 15 nM) leads to the accumulation of acetylated H4-histones within one to six hours being an indicator for a histone deacetylase inhibitor.

[3] = test system: SH-EP neuroblastoma cells; assay: Apoptosis of SH-EP neuroblastoma cells; assay type: cell-based; details: FIG. 2c
Protocol: (§1) FIG. 2: Influence of HC-Toxin upon proliferation, cell cycle, and apoptosis of SH-EP neuroblastoma cells.
(§2) An increase in apoptotic cells from 5% to 20% was observed after 48 h to 72 h of HC-toxin treatment in a dose dependent manner (FIG. 2c).

[4] = test system: SH-EP neuroblastoma cells; assay: Cell cycle of SH-EP neuroblastoma cells; assay type: cell-based; details: 15 nM vs control cells
Protocol: as §1, §2

[5] = test system: MYCN stably transfected SH-EP-neuroblastoma cells (WAC2); assay: Proliferation of MYCN stably transfected SH-EP neuroblastoma cells WAC2; assay type: cell-based; details: stronger inhibition than in SH-EP
Protocol: (§3) FIG. 4: Influence of HC-Toxin upon the proliferation of MYCN amplified neuroblastoma cells and cells, which overexpress MYCN. (a) BE(2)-C neuroblastoma cells, (b) WAC2 neuroblastoma cells, and (c) Tet21N neuroblastoma cells.
(§4) MYCN amplified neuroblastoma cells (Be(2)-C), MYCN stably transfected SH-EP-neuroblastoma cells (WAC2) as well as SH-EP cells having an tetracycline inducible MYCN (Tet21N) were treated by HC-Toxin.

[6] = test system: SH-EP neuroblastoma cells; assay: Proliferation of SH-EP neuroblastoma cells; assay type: cell-based; details: 10 to 20 nM
Protocol: as §1
(§5) 5×10*4 SH-EP neuroblastoma cells were cultured in RPMI 1640 medium (including 10% FBS, 1% Pen/Strep). After 24 hours of culture, the cells were treated up to 96 h with 10 to 20 nM HC-Toxin or, as solvent control, with methanol (MeOH) at 37° C., 5% CO2. The morphological changes of the cells were investigated using phase contrast microscopy. After 36 h of treatment, neurite outgrowth was observed. After 72 h of treatment, said neurite outgrowth reached its maximum and was constant if treatment was prolonged (not shown). […] More than 95% of the SH-EP neuroblastoma cells differentiate morphologically when treated with 15 nM HC-Toxin (see FIG. 1c).
as §2

primary skin fibroblasts [7] = assay: Proliferation of primary non-transformed skin fibroblasts; assay type: cell-based, human; details: 10-20 nM, same conditions as SH-EP
Protocol: (§6) FIG. 3: Influence of HC-Toxin upon proliferation and cell cycle of primary non-transformed skin fibroblasts.
(§7) In order to determine the effects of HC-Toxin on “normal” body cells, primary skin fibroblasts were treated under the same conditions.

[8] = test system: SH-EP cells having an tetracycline inducible MYCN (Tet21N); assay: Proliferation of SH-EP cells with tetracycline inducible MYCN (Tet21N); assay type: cell-based; details: stronger inhibition than in SH-EP
Protocol: as §3, §4

[9] = test system: MYCN amplified neuroblastoma cells (Be(2)-C); assay: Proliferation of MYCN amplified neuroblastoma cells Be(2)-C; assay type: cell-based; details: stronger inhibition than in SH-EP
Protocol: as §3, §4

primary skin fibroblasts [10] = assay: Cell cycle of primary non-transformed skin fibroblasts; assay type: cell-based, human; details: 15 nM vs methanol control
Protocol: as §6, §7

[11] = test system: SH-EP neuroblastoma cells; assay: Neuronal differentiation of SH-EP neuroblastoma cells (phase contrast microscopy, immunocytochemistry); assay type: cell-based
Protocol: FIG. 1: HC-Toxin induces neuronal differentiation in SH-EP MYCN-single copy neuroblastoma cells. Cells with neurites longer than twice the diameter of the cell body have been deemed as differentiated cells.
as §5

various tumour cells [12] = details: cited from earlier work

## CC1=C(/C=C/C(C)=C/C=C/C(C)=C/C(=O)O)C(C)(C)CCC1 [all-trans retinoic acid, reference compound]
[1]
  accumulation of acetylated histone H4: no induction of hyperacetylation of histone H4
Various tumour cells [2]
  concentration to be administered compared to HC-toxin: 1000 fold

## CC1NC(=O)C(C)NC(=O)C2CCCN2C(=O)C(CCCCCC(=O)C2CO2)NC1=O (stereo not drawn) [HC-Toxin, Helminthosporium carbonum toxin]
[3]
  induction of apoptosis in SH-EP cells: induces apoptosis in a concentration dependent manner
[4]
  cell cycle distribution of SH-EP cells: accumulation of the HC-Toxin treated cells in the G0/1 phase
[5]
  inhibition of proliferation of WAC2 cells: efficiently inhibits proliferation
[1]
  accumulation of acetylated histone H4: induces hyperacetylation of histone H4
[1]; listed as iHC-Toxin
  accumulation of acetylated histone H4: induce accumulation of acetylated histone H4
[6]
  inhibition of SH-EP neuroblastoma cell proliferation: inhibits cell proliferation in a concentration dependent manner; also recorded: concentration-dependent inhibition
Primary skin fibroblasts [7]
  proliferation of primary skin fibroblasts: No significant changes
Primary skin fibroblasts [7]; listed as HC-toxin
  proliferation of primary skin fibroblasts: has no influence upon the proliferation
[8]
  inhibition of proliferation of Tet21N cells: efficiently inhibits proliferation
[9]
  inhibition of proliferation of Be(2)-C cells: efficiently inhibits proliferation
Primary skin fibroblasts [10]
  cell cycle of primary skin fibroblasts: does not alter the cell cycle; also recorded: No significant changes
[11]; 15 nM HC-Toxin, neurites longer than twice the diameter of the cell body
  SH-EP neuroblastoma cells that differentiate morphologically: More than 95%
[11]; 10 to 20 nM, SH-EP cells
  time of treatment after which neurite outgrowth reached its maximum: 72 h
  time of treatment after which neurite outgrowth was observed: 36 h

## CC(/C=C/C(=O)NO)=C\[C@@H](C)C(=O)c1ccc(N(C)C)cc1 [trichostatin A]
Various tumour cells [12]
  cytotoxic effects: strong cytotoxic effects

## CCCC(CCC)C(=O)O [valproic acid]
Various tumour cells [12]; not achievable in vivo
  efficient concentration: only efficient in millimolar concentrations
